Assay [1] relates to primary human total T-cells. As to the kind of experiment: Primary human total T-cell activation (IL-2 secretion, CD25 surface staining), Biological Example 2. The following applies: fold change over baseline; for IL-2 secretion CD3/CD28 0.3 μM / CD25 staining CD3/CD28 0.3 μM: 0.3 μM inhibitor; for CD25 staining CD3 1 μM / IL-2 secretion CD3 1 μM / CD25 staining CD3 3 μM / IL-2 secretion CD3 3 μM: anti-CD3 stimulation alone; for CD25 staining CD3 3 μM / IL-2 secretion CD3 3 μM: 3 μM inhibitor.
Procedure: Peripheral blood mononuclear cells (PBMC) were obtained either: 1) by using Ficoll-Paque™ (GE Healthcare) for separation of peripheral blood hematopoietic cells from buffy coats of healthy human donors; or 2) directly from LeukoPak donations. […] The cells were rested overnight at 37° C. 5% CO2. The Cbl-inhibitor was added to 1×10^5 cells per well and the plate was incubated for one hour at 37° C. in 5% CO2 at the concentrations indicated (Table 3) with a final DMSO concentration of <0.1%. For samples stimulated with anti-CD3 antibody and anti-CD28 antibody (anti-CD3/anti-CD28), the Cbl-b inhibitor concentrations tested were 1 μM, and 0.3 μM. For samples stimulated with anti-CD3 antibody alone (anti-CD3), the Cbl-b inhibitor concentrations tested were 3 μM, and 1 μM. […] To prepare plates with plate bound anti-CD3 antibody (OKT3), 96-well round bottom tissue culture plates were coated with 100 μL of anti-CD3 antibody (OKT3) at 10 μg/mL for 4 hours at 37° C. 5% CO2 in phosphate buffered saline (PBS). […] Cells were stimulated for 48 hours prior to harvesting the cell free supernatant and staining the cell population for surface marker assessment by flow cytometry. Supernatants were analyzed for cytokine secretion, including IL-2 by ELISA (R&D Systems, Peprotech or Life Technologies) or Luminex multiplex kits (Procarta Life Technologies) following the manufacturer's protocol. Cells were stained with anti-CD25 antibody (BD Biosciences) to assess levels of surface marker of activation.
Readouts were reported as fold change over baseline. Baseline for this study was the measurement obtained from total human T-cells stimulated with anti-CD3 antibody and with soluble anti-CD28 antibody, wherein the cells were not incubated with a Cbl-b inhibitor (Table 3).

For another assay, the target named is Cbl-b (Homo sapiens (Human), UniProt Q13191). The experiment in a line: Cbl-b displacement assay (Cbl-b inhibition assay), Biological Example 1. Type of assay: binding. How it is done: The ability of candidate compounds to displace a known inhibitor and thereby inhibit Cbl-b activity was measured by monitoring the interaction of Cbl-b with a fluorophore-labeled probe in the presence of the candidate compound.
Following the one hour incubation, the plates were read for TR-FRET signal at 520/620 nm using an Envision plate reader (Perkin Elmer).

The mark [2] stands for this setting: anti-CD3 and anti-CD28 co-stimulation.
Setting [3] is: 1 μM inhibitor, anti-CD3 and anti-CD28 co-stimulation.
Where [4] appears, read: 0.125 nM Cbl-b final concentration (Low), read-out: Cbl-b activity IC50 (Low).
[5] abbreviates: read-out: IC50 values in the Cbl-b inhibition assay of Biological Example 1.

Read-outs that look alike come from different tables or passages of the source.

Results on 8 molecules are retold here after patent publication US12234230B2, “Substituted benzyl-triazole compounds for Cbl-b inhibition, and further uses thereof” (Nurix Therapeutics, Inc., priority 2019, dated 2025).

By IC50 is commonly meant the point on the concentration scale where inhibition reaches its midpoint.

Chain of Cbl-b (Q13191 36-427): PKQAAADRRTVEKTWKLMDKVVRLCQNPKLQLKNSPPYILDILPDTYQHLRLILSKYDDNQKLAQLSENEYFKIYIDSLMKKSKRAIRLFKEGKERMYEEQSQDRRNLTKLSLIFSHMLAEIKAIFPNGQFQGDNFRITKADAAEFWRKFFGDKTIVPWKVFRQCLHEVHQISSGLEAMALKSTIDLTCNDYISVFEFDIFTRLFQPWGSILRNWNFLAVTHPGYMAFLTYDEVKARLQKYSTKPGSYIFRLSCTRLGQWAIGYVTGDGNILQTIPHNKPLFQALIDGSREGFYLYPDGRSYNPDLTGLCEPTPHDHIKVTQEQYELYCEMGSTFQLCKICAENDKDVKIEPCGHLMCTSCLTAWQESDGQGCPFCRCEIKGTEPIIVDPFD

For `C[C@H]1CCCN(Cc2cc3c(c(C(F)(F)F)c2)CN(c2cccc([C@]4(c5nncn5C)C[C@H](CC#N)C4)c2)C3=O)C1` [Compound 50, 2-((1S,3r)-3-(4-methyl-4H-1,2,4-triazol-3-yl)-3-(3-(6-(((S)-3-methylpiperidin-1-yl)methyl)-1-oxo-4-(trifluoromethyl)isoindolin-2-yl)phenyl)cyclobutyl)acetonitrile], the “IL-2 secretion CD3/CD28 0.3 μM” value in assay [1] (setting [2]) is reported as “A (A indicates >35 fold)”. Further, the “IL-2 secretion CD3/CD28 1 μM” value in assay [1] (setting [3]) is reported as “A (A indicates >35 fold)”. Besides, in assay [1] (1 μM inhibitor), the “CD25 staining CD3 1 μM” value is on record as “A (A indicates >2.5 fold)” and the “IL-2 secretion CD3 1 μM” value is listed as “A (A indicates >1.1 fold)”. For the same molecule, in assay [1], the “CD25 staining CD3 3 μM” value was “A (A indicates >2.5 fold)” and the “IL-2 secretion CD3 3 μM” value is “A (A indicates >1.1 fold)”. Besides, the IC50 on Cbl-b (setting [4]) was below 5 nM.

Take `C[C@@H]1CN(Cc2cc3c(c(C(F)(F)F)c2)CN(c2cccc(C4(c5nncn5C)CC5(CC5)C4)c2)C3=O)CCC1(F)F` [Compound 41, 6-[[(3R)-4,4-difluoro-3-methyl-1-piperidyl]methyl]-2-[3-[5-(4-methyl-1,2,4-triazol-3-yl)spiro[2.3]hexan-5-yl]phenyl]-4-(trifluoromethyl)isoindolin-1-one]: in assay [1] (setting [2]), the “IL-2 secretion CD3/CD28 0.3 μM” value is given as “B (B indicates 20-35 fold)”. Also, in assay [1] (setting [3]), the “IL-2 secretion CD3/CD28 1 μM” value was “A (A indicates >35 fold)”. Besides, in assay [1] (1 μM inhibitor), the “CD25 staining CD3 1 μM” value is on record as “A (A indicates >2.5 fold)” and the “IL-2 secretion CD3 1 μM” value is “A (A indicates >1.1 fold)”. Besides, in assay [1], the “CD25 staining CD3 3 μM” value is “A (A indicates >2.5 fold)” and the “IL-2 secretion CD3 3 μM” value is on record as “A (A indicates >1.1 fold)”. Besides, the IC50 at Cbl-b (setting [4]) was below 5 nM.

`Cc1cc(C(=O)Nc2cccc([C@]3(c4nncn4C)C[C@H](C)C3)c2)nc(C2CC2)n1` [Compound 22, 2-cyclopropyl-6-methyl-N-{3-[(1s,3r)-3-methyl-1-(4-methyl-1,2,4-triazol-3-yl)cyclobutyl]phenyl}pyrimidine-4-carboxamide]: the “IL-2 secretion CD3/CD28 0.3 μM” value in assay [1] (setting [2]) is reported as “C (C indicates <20 fold)”. In addition, the “IL-2 secretion CD3/CD28 1 μM” value in assay [1] (setting [3]) is on record as “C (C indicates <20 fold)”. Moreover, in assay [1] (1 μM inhibitor), the “CD25 staining CD3 1 μM” value is “C (C indicates <1.5 fold)” and the “IL-2 secretion CD3 1 μM” value is “C (C indicates <0.70 fold)”. Besides, in assay [1], the “CD25 staining CD3 3 μM” value is reported as “C (C indicates <1.5 fold)” and the “IL-2 secretion CD3 3 μM” value is on record as “C (C indicates <0.70 fold)”. Besides, on Cbl-b (setting [4]), the IC50 fell in the range of 20 to 100 nM.

In the case of `C[C@@H]1CN(Cc2cc3c(c(C(F)(F)F)c2)CN(c2cccc(C4(c5nncn5C)COC4)c2)C3=O)CCC1(F)F` [Compound 47, 6-[[(3R)-4,4-difluoro-3-methyl-1-piperidyl]methyl]-2-[3-[3-(4-methyl-1,2,4-triazol-3-yl)oxetan-3-yl]phenyl]-4-(trifluoromethyl)isoindolin-1-one], the “IL-2 secretion CD3/CD28 0.3 μM” value in assay [1] (setting [2]) is “A (A indicates >35 fold)”. Further, the “IL-2 secretion CD3/CD28 1 μM” value in assay [1] (setting [3]) is “A (A indicates >35 fold)”. In addition, in assay [1] (1 μM inhibitor), the “CD25 staining CD3 1 μM” value is “B (B indicates 1.5-2.5 fold)” and the “IL-2 secretion CD3 1 μM” value is given as “B (B indicates 0.70-1.1 fold)”. In assay [1], the “CD25 staining CD3 3 μM” value is “B (B indicates 1.5-2.5 fold)” and the “IL-2 secretion CD3 3 μM” value is recorded as “C (C indicates <0.70 fold)”. The IC50 at Cbl-b (setting [4]) was below 5 nM.

On to `C[C@@H]1CN(Cc2cc3c(c(C(F)(F)F)c2)CN(c2cccc([C@]4(c5nncn5C)C[C@H](C#N)C4)c2)C3=O)CCC1(F)F` [Compound 40, (1R,3r)-3-(3-(6-(((R)-4,4-difluoro-3-methylpiperidin-1-yl)methyl)-1-oxo-4-(trifluoromethyl)isoindolin-2-yl)phenyl)-3-(4-methyl-4H-1,2,4-triazol-3-yl)cyclobutane-1-carbonitrile], for which the “IL-2 secretion CD3/CD28 0.3 μM” value in assay [1] (setting [2]) was “B (B indicates 20-35 fold)”. Also, the “IL-2 secretion CD3/CD28 1 μM” value in assay [1] (setting [3]) is recorded as “A (A indicates >35 fold)”. In assay [1] (1 μM inhibitor), the “CD25 staining CD3 1 μM” value is “A (A indicates >2.5 fold)” and the “IL-2 secretion CD3 1 μM” value was “B (B indicates 0.70-1.1 fold)”. Besides, in assay [1], the “CD25 staining CD3 3 μM” value is reported as “A (A indicates >2.5 fold)” and the “IL-2 secretion CD3 3 μM” value is “B (B indicates 0.70-1.1 fold)”. Moreover, the IC50 on Cbl-b (setting [4]) was below 5 nM.

Consider `CC(c1cc2c(c(C(F)(F)F)c1)CN(c1cccc([C@@H](c3nncn3C)C3CCC3)c1)C2=O)N1CCC(F)(F)[C@H](C)C1` (stereo partly drawn) [Compound 14, 2-(3-((S)-cyclobutyl(4-methyl-4H-1,2,4-triazol-3-yl)methyl)phenyl)-6-(1-((R)-4,4-difluoro-3-methylpiperidin-1-yl)ethyl)-4-(trifluoromethyl)isoindolin-1-one], for which, in assay [1] (setting [2]), the “CD25 staining CD3/CD28 0.3 μM” value is reported as “B (B indicates 1.24-1.39 fold)” and the “IL-2 secretion CD3/CD28 0.3 μM” value is listed as “C (C indicates <20 fold)”. Moreover, the “IL-2 secretion CD3/CD28 1 μM” value in assay [1] (setting [3]) is “C (C indicates <20 fold)”. Further, in assay [1] (1 μM inhibitor), the “CD25 staining CD3 1 μM” value was “C (C indicates <1.5 fold)” and the “IL-2 secretion CD3 1 μM” value is recorded as “C (C indicates <0.70 fold)”. Further, in assay [1], the “CD25 staining CD3 3 μM” value was “C (C indicates <1.5 fold)” and the “IL-2 secretion CD3 3 μM” value is given as “C (C indicates <0.70 fold)”. Besides, the IC50 on Cbl-b (setting [4]) was in the range of 20 to 100 nM. Also, the IC50 on Cbl-b (setting [5]) lay in the range of 20 to 100 nM.

As for `C[C@H]1CCCN(Cc2cc3c(c(C(F)(F)F)c2)CN(c2cccc([C@]4(c5nncn5C)C[C@@H](O)C4)c2)C3=O)C1` [Compound 32, 2-(3-((1s,3R)-3-hydroxy-1-(4-methyl-4H-1,2,4-triazol-3-yl)cyclobutyl)phenyl)-6-(((S)-3-methylpiperidin-1-yl)methyl)-4-(trifluoromethyl)isoindolin-1-one], the “IL-2 secretion CD3/CD28 0.3 μM” value in assay [1] (setting [2]) is “B (B indicates 20-35 fold)”. The “IL-2 secretion CD3/CD28 1 μM” value in assay [1] (setting [3]) was “A (A indicates >35 fold)”. Besides, in assay [1] (1 μM inhibitor), the “CD25 staining CD3 1 μM” value is on record as “A (A indicates >2.5 fold)” and the “IL-2 secretion CD3 1 μM” value is listed as “A (A indicates >1.1 fold)”. Further, in assay [1], the “CD25 staining CD3 3 μM” value is “A (A indicates >2.5 fold)” and the “IL-2 secretion CD3 3 μM” value is “A (A indicates >1.1 fold)”. The IC50 at Cbl-b (setting [4]) fell in the range of 5 to 20 nM.

As to `C[C@@H]1CN(Cc2cc3c(c(C4CC4)n2)CN(c2cccc([C@@H](c4nncn4C)C4CCC4)c2)C3=O)CCC1(F)F` [Compound 5, 2-(3-((S)-cyclobutyl(4-methyl-4H-1,2,4-triazol-3-yl)methyl)phenyl)-4-cyclopropyl-6-(((R)-4,4-difluoro-3-methylpiperidin-1-yl)methyl)-2,3-dihydro-1H-pyrrolo[3,4-c]pyridin-1-one], in assay [1] (setting [2]), the “CD25 staining CD3/CD28 0.3 μM” value was “B (B indicates 1.24-1.39 fold)” and the “IL-2 secretion CD3/CD28 0.3 μM” value is on record as “C (C indicates <20 fold)”. For the same molecule, in assay [1] (setting [3]), the “CD25 staining CD3/CD28 1 μM” value is “B (B indicates 1.24-1.39 fold)” and the “IL-2 secretion CD3/CD28 1 μM” value is recorded as “C (C indicates <20 fold)”. Moreover, in assay [1] (1 μM inhibitor), the “CD25 staining CD3 1 μM” value is recorded as “C (C indicates <1.5 fold)” and the “IL-2 secretion CD3 1 μM” value was “C (C indicates <0.70 fold)”. In addition, in assay [1], the “CD25 staining CD3 3 μM” value is reported as “C (C indicates <1.5 fold)” and the “IL-2 secretion CD3 3 μM” value was “C (C indicates <0.70 fold)”. The IC50 at Cbl-b (setting [4]) was 20 to 100 nM. Further, the IC50 on Cbl-b (setting [5]) lay within 20 to 100 nM.
